Results on one compound are retold here after article PMC5620994, “Halogenation of glycopeptide antibiotics occurs at the amino acid level during non-ribosomal peptide synthesis” (Chemical Science, 2017).

Experiment [1] addresses T1, BhaA (balhimycin halogenase) (Amycolatopsis balhimycina, UniProt O87676).
T1 construct: overproduced in Pseudomonas fluorescens BL915 deltaORF1-4 from shuttle vector pCIBhis (His tag)
Kind of experiment: purified as FAD-bound form. The note with it: FAD co-purified with the enzyme. Format: binding.

The target in experiment [2] is T2, Tcp21 (halogenase from the teicoplanin system) (Actinoplanes teichomyceticus, UniProt Q70AY7).
T2 construct: synthetic codon-optimised gene, selected range 16-506, pET-28(a) via NdeI/HindIII, His-tagged, expressed in E. coli
T2 sequence (Q70AY7 16-506): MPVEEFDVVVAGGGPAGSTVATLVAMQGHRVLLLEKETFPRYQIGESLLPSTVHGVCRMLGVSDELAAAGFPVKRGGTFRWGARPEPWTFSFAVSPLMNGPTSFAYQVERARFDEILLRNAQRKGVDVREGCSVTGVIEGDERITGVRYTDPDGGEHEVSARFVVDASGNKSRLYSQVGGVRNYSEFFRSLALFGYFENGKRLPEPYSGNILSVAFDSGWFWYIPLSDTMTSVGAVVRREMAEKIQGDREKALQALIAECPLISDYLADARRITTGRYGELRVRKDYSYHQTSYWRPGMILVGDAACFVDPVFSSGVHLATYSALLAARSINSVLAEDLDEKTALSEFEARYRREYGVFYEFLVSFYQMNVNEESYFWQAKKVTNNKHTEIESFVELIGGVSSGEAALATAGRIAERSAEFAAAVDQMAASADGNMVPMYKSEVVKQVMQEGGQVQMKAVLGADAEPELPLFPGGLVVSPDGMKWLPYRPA
Nature of the experiment: purified as FAD-bound form. Format: binding. As to conditions: FAD co-purified with the enzyme.

T1 sequence (O87676 entry or part of it): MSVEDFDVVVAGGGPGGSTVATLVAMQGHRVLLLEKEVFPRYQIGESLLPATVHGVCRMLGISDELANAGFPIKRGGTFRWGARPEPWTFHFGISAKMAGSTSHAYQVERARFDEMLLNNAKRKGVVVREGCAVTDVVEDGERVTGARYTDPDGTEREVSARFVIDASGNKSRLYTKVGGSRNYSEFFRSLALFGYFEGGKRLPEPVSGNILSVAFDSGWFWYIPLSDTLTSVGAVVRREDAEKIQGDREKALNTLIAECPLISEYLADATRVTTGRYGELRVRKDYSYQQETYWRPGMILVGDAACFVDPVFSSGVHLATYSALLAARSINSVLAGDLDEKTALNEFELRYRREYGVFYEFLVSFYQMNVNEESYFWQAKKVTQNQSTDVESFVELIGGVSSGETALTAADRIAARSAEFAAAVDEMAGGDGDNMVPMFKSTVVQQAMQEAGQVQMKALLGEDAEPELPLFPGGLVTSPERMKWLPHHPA

For `Cc1cc2nc3c(=O)[nH]c(=O)nc-3n(C[C@H](O)[C@H](O)[C@H](O)COP(=O)(O)OP(=O)(O)OC[C@H]3O[C@@H](n4cnc5c(N)ncnc54)[C@H](O)[C@@H]3O)c2cc1C` [FAD], the “purified as FAD-bound form” value in experiment [1] is “Both enzymes could be overproduced and purified in an FAD-bound form as anticipated”; in experiment [2], “Both enzymes could be overproduced and purified in an FAD-bound form as anticipated”.
